In PubChem BioAssay (NCI):
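Grown in 96-well plates, cells were treated for 48 hours with each compound at five concentrations. Insufficient inhibition: endpoint recorded as highest concentration tested. At the GI50, growth is halved. TGI: total growth inhibition.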

Key:
Test in all cases: growth of human tumour cells (NCI), 48 h
786-0 renal = system: 786-0 renal
A498 renal = system: A498 renal
A549 NSCLC = system: A549 NSCLC
ACHN renal = system: ACHN renal
BT-549 breast = system: BT-549 breast
CAKI-1 renal = system: CAKI-1 renal
CCRF-CEM leukemia = system: CCRF-CEM leukemia
COLO 205 colon = system: COLO 205 colon
DU-145 prostate = system: DU-145 prostate
EKVX NSCLC = system: EKVX NSCLC
HCC-2998 colon = system: HCC-2998 colon
HCT-116 colon = system: HCT-116 colon
HCT-15 colon = system: HCT-15 colon
HL-60(TB) leukemia = system: HL-60(TB) leukemia
HOP-62 NSCLC = system: HOP-62 NSCLC
HOP-92 NSCLC = system: HOP-92 NSCLC
HS 578T breast = system: HS 578T breast
HT29 colon = system: HT29 colon
IGROV1 ovarian = system: IGROV1 ovarian
K-562 leukemia = system: K-562 leukemia
LOX IMVI melanoma = system: LOX IMVI melanoma
M14 melanoma = system: M14 melanoma
MALME-3M melanoma = system: MALME-3M melanoma
MCF7 breast = system: MCF7 breast
MDA-MB-231 breast = system: MDA-MB-231 breast
MDA-MB-435 = system: MDA-MB-435
MOLT-4 leukemia = system: MOLT-4 leukemia
NCI-H226 lung = system: NCI-H226 lung
NCI-H23 lung = system: NCI-H23 lung
NCI-H460 lung = system: NCI-H460 lung
NCI-H522 lung = system: NCI-H522 lung
NCI/ADR-RES ovarian = system: NCI/ADR-RES ovarian
OVCAR-3 ovarian = system: OVCAR-3 ovarian
OVCAR-4 ovarian = system: OVCAR-4 ovarian
OVCAR-5 ovarian = system: OVCAR-5 ovarian
OVCAR-8 ovarian = system: OVCAR-8 ovarian
PC-3 prostate = system: PC-3 prostate
RPMI-8226 leukemia = system: RPMI-8226 leukemia
RXF 393 renal = system: RXF 393 renal
SF-268 CNS = system: SF-268 CNS
SF-295 CNS = system: SF-295 CNS
SF-539 CNS = system: SF-539 CNS
SK-MEL-2 melanoma = system: SK-MEL-2 melanoma
SK-MEL-28 melanoma = system: SK-MEL-28 melanoma
SK-MEL-5 melanoma = system: SK-MEL-5 melanoma
SK-OV-3 ovarian = system: SK-OV-3 ovarian
SN12C renal = system: SN12C renal
SNB-19 CNS = system: SNB-19 CNS
SNB-75 CNS = system: SNB-75 CNS
SR leukemia = system: SR leukemia
SW-620 colon = system: SW-620 colon
TK-10 renal = system: TK-10 renal
U251 CNS = system: U251 CNS
UACC-257 melanoma = system: UACC-257 melanoma
UACC-62 melanoma = system: UACC-62 melanoma
UO-31 renal = system: UO-31 renal

Q: What does the source list for `CC1OC(O[C@@H]2[C@H](O)C(CO)OC(O[C@H]3COC(O[C@H]4CC[C@]5(C)[C@H]6CC[C@]78OC[C@@]9(CCC(C)(C)C[C@H]97)[C@H](O)C[C@@]8(C)[C@]6(C)CC[C@H]5C4(C)C)[C@@H](OC4OC(CO)[C@@H](O)[C@@H](O)[C@@H]4O)[C@@H]3O)[C@H]2OC2OC[C@@H](O)[C@@H](O)[C@@H]2O)[C@@H](O)[C@@H](O)[C@H]1O` (some centres not stated)?
A: GI50 (786-0 renal): 2800 nM; TGI (786-0 renal): 5160 nM; GI50 (A498 renal): 2440 nM; TGI (A498 renal): 4590 nM; GI50 (A549 NSCLC): 3070 nM; TGI (A549 NSCLC): 5910 nM; GI50 (ACHN renal): 621 nM; TGI (ACHN renal): 2570 nM; GI50 (BT-549 breast): 2360 nM; TGI (BT-549 breast): 4550 nM; GI50 (CAKI-1 renal): 2390 nM; TGI (CAKI-1 renal): 4510 nM; GI50 (CCRF-CEM leukemia): 698 nM; TGI (CCRF-CEM leukemia): 3260 nM; GI50 (COLO 205 colon): 2290 nM; TGI (COLO 205 colon): 4500 nM; GI50 (DU-145 prostate): 2470 nM; TGI (DU-145 prostate): 4920 nM; GI50 (EKVX NSCLC): 3040 nM; TGI (EKVX NSCLC): 5480 nM; GI50 (HCC-2998 colon): 1560 nM; TGI (HCC-2998 colon): 3390 nM; GI50 (HCT-116 colon): 1780 nM; TGI (HCT-116 colon): 3680 nM; GI50 (HCT-15 colon): 2520 nM; TGI (HCT-15 colon): 4780 nM; GI50 (HL-60(TB) leukemia): 345 nM; TGI (HL-60(TB) leukemia): 700 nM; GI50 (HOP-62 NSCLC): 2570 nM; TGI (HOP-62 NSCLC): 4940 nM; GI50 (HOP-92 NSCLC): 1850 nM; TGI (HOP-92 NSCLC): 3810 nM; GI50 (HS 578T breast): 2450 nM; TGI (HS 578T breast): 5500 nM; GI50 (HT29 colon): 2800 nM; TGI (HT29 colon): 5230 nM; GI50 (IGROV1 ovarian): 2310 nM; TGI (IGROV1 ovarian): 4650 nM; GI50 (K-562 leukemia): 2950 nM; TGI (K-562 leukemia): 5980 nM; GI50 (LOX IMVI melanoma): 2060 nM; TGI (LOX IMVI melanoma): 4110 nM; GI50 (M14 melanoma): 1440 nM; TGI (M14 melanoma): 3350 nM; GI50 (MALME-3M melanoma): 2580 nM; TGI (MALME-3M melanoma): 4960 nM; GI50 (MCF7 breast): 2230 nM; TGI (MCF7 breast): 4830 nM; GI50 (MDA-MB-231 breast): 2070 nM; TGI (MDA-MB-231 breast): 4180 nM; GI50 (MDA-MB-435): 2160 nM; TGI (MDA-MB-435): 4220 nM; GI50 (MOLT-4 leukemia): 535 nM; TGI (MOLT-4 leukemia): 3270 nM; GI50 (NCI-H226 lung): 2730 nM; TGI (NCI-H226 lung): 5730 nM; GI50 (NCI-H23 lung): 1910 nM; TGI (NCI-H23 lung): 4140 nM; GI50 (NCI-H460 lung): 2620 nM; TGI (NCI-H460 lung): 5350 nM; GI50 (NCI-H522 lung): 2450 nM; TGI (NCI-H522 lung): 4690 nM; GI50 (NCI/ADR-RES ovarian): 2640 nM; TGI (NCI/ADR-RES ovarian): 5400 nM; GI50 (OVCAR-3 ovarian): 2750 nM; TGI (OVCAR-3 ovarian): 5040 nM; GI50 (OVCAR-4 ovarian): 2250 nM; TGI (OVCAR-4 ovarian): 4820 nM; GI50 (OVCAR-5 ovarian): 2520 nM; TGI (OVCAR-5 ovarian): 4920 nM; GI50 (OVCAR-8 ovarian): 3500 nM; TGI (OVCAR-8 ovarian): 6830 nM; GI50 (PC-3 prostate): 2560 nM; TGI (PC-3 prostate): 4770 nM; GI50 (RPMI-8226 leukemia): 1930 nM; TGI (RPMI-8226 leukemia): 4680 nM; GI50 (RXF 393 renal): 566 nM; TGI (RXF 393 renal): 2850 nM; GI50 (SF-268 CNS): 2550 nM; TGI (SF-268 CNS): 5130 nM; GI50 (SF-295 CNS): 2580 nM; TGI (SF-295 CNS): 4760 nM; GI50 (SF-539 CNS): 1550 nM; TGI (SF-539 CNS): 3510 nM; GI50 (SK-MEL-2 melanoma): 2320 nM; TGI (SK-MEL-2 melanoma): 4570 nM; GI50 (SK-MEL-28 melanoma): 809 nM; TGI (SK-MEL-28 melanoma): 2770 nM; GI50 (SK-MEL-5 melanoma): 2270 nM; TGI (SK-MEL-5 melanoma): 4370 nM; GI50 (SK-OV-3 ovarian): 2410 nM; TGI (SK-OV-3 ovarian): 4530 nM; GI50 (SN12C renal): 1680 nM; TGI (SN12C renal): 3560 nM; GI50 (SNB-19 CNS): 2140 nM; TGI (SNB-19 CNS): 4430 nM; GI50 (SNB-75 CNS): 256 nM; TGI (SNB-75 CNS): 1410 nM; GI50 (SR leukemia): 16.9 nM; TGI (SR leukemia): 1520 nM; GI50 (SW-620 colon): 2550 nM; TGI (SW-620 colon): 5120 nM; GI50 (TK-10 renal): 3590 nM; TGI (TK-10 renal): 5970 nM; GI50 (U251 CNS): 2690 nM; TGI (U251 CNS): 5130 nM; GI50 (UACC-257 melanoma): 2850 nM; TGI (UACC-257 melanoma): 5170 nM; GI50 (UACC-62 melanoma): 2270 nM; TGI (UACC-62 melanoma): 4340 nM; GI50 (UO-31 renal): 323 nM; TGI (UO-31 renal): 1140 nM
